For 27 molecules, IC50 results are on record in patent US20240425479A1, “HALO-SUBSTITUTED AMINO AZA-HETEROARYL COMPOUNDS AS INHIBITORS OF THE HAEMATOPOIETIC PROGENITOR KINASE 1 (HPK1)” (priority 2021, published 2024).

The target in the experiment is T1, Recombinant (1-346) HPK1 (h) (Homo sapiens, UniProt Q92918).
T1 construct: Recombinant (1-346) HPK1 (h) is incubated with 8 mM MOPS pH 7.0
T1 sequence (Q92918 1-346): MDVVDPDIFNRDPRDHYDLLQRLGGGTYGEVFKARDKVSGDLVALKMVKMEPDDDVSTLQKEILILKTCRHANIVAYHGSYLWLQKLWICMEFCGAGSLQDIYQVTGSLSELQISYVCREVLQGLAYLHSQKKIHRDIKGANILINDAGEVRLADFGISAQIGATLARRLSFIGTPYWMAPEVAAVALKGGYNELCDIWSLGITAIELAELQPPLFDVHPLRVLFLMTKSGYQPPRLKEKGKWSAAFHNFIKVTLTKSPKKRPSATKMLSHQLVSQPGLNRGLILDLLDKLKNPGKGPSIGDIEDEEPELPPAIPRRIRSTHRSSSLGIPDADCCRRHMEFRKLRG
Briefly: HPK1 human STE kinase enzymatic radiometric assay. The class given is biochemical. The following applies: read-out: HPK1 IC50 nM Range. The gist of the method:
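Recombinant HPK1 (1-346) incubated 40 min at RT with 0.33 mg/mL myelin basic protein and [gamma-33P]-ATP in 8 mM MOPS pH 7.0, 0.2 mM EDTA, 10 mM Mg acetate; reaction started with Mg/ATP. Stopped with 0.5% phosphoric acid, spotted on P30 filtermat, washed, scintillation counted. Compounds tested as 9-point 3-fold dilutions.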
`CN(C)Cc1c(N2CCOCC2)ccc(-c2nc(-c3cc(F)c4c(c3)CCNC4=O)c(N)nc2F)c1F` [Example I-242, 6-(3-amino-6-(3-((dimethylamino)methyl)-2-fluoro-4-morpholinophenyl)-5-fluoropyrazin-2-yl)-8-fluoro-3,4-dihydroisoquinolin-1(2H)-one]: the IC50 is 11 to 100 nM.

Turning to `CN(C)Cc1cccc(-c2nc(-c3cc(F)c4c(c3)CCNC4=O)c(N)nc2F)c1` [Example I-279, 6-(3-amino-6-(3-((dimethylamino)methyl)phenyl)-5-fluoropyrazin-2-yl)-8-fluoro-3,4-dihydroisoquinolin-1(2H)-one], the half-maximal inhibitory concentration (IC50) was in the range of 11 to 100 nM.

On to `COCCN(C)Cc1cc(-c2nc(-c3cc(F)c4c(c3)CCNC4=O)c(N)nc2F)ccc1N1CCOCC1` [Example I-162, 6-(3-amino-5-fluoro-6-(3-(((2-methoxyethyl)(methyl)amino)methyl)-4-morpholinophenyl)pyrazin-2-yl)-8-fluoro-3,4-dihydroisoquinolin-1(2H)-one], for which the IC50 fell in the range of 0.1 to 10 nM.

With `Cc1c[nH]c(=O)c2ccc(-c3nc(-c4cc(CN(C)C)c(N5CCOCC5)cc4F)c(F)nc3N)cc12` [Example I-261, 6-(3-amino-6-(5-((dimethylamino)methyl)-2-fluoro-4-morpholinophenyl)-5-fluoropyrazin-2-yl)-4-methylisoquinolin-1(2H)-one], the concentration for half-maximal inhibition (IC50) was 101 to 1000 nM.

As to `CN(C)Cc1cc(-c2nc(-c3cc4c(cc3F)C(=O)NCC4)c(N)nc2F)ccc1N1CCSCC1` [Example I-129, 6-(3-amino-6-(3-((dimethylamino)methyl)-4-thiomorpholinophenyl)-5-fluoropyrazin-2-yl)-7-fluoro-3,4-dihydroisoquinolin-1(2H)-one], the half-maximal inhibitory concentration (IC50) was in the range of 0.1 to 10 nM.

As to `C[C@H]1CN(c2ccc(-c3nc(-c4ccc5c(c4)CCNC5=O)c(N)nc3F)cc2CN(C)C)CCO1` [Example I-211, (S)-6-(3-amino-6-(3-((dimethylamino)methyl)-4-(2-methylmorpholino)phenyl)-5-fluoropyrazin-2-yl)-3,4-dihydroisoquinolin-1(2H)-one], the IC50 lay within 0.1 to 10 nM.

Turning to `CC1NC(=O)c2c(F)cc(-c3nc(-c4ccc(N5CCN(C6CCC6)CC5)cc4)c(F)nc3N)cc2C1(F)F` (stereo not drawn) [Example I-150, 6-(3-amino-6-(4-(4-cyclobutylpiperazin-1-yl)phenyl)-5-fluoropyrazin-2-yl)-4,4,8-trifluoro-3-methyl-3,4-dihydroisoquinolin-1(2H)-one], the IC50 fell in the range of 11 to 100 nM.

In the case of `Cc1c[nH]c(=O)c2ccc(-c3nc(-c4cnc(N5CCOCC5)c(CN(C)C)c4)c(F)nc3N)cc12` [Example I-236, 6-(3-amino-6-(5-((dimethylamino)methyl)-6-morpholinopyridin-3-yl)-5-fluoropyrazin-2-yl)-4-methylisoquinolin-1(2H)-one], the IC50 lay in the range of 11 to 100 nM.

As to `Cc1c[nH]c(=O)c2c(F)cc(-c3nc(-c4ccc(C5CCOCC5)c(CN(C)C)c4)c(F)nc3N)cc12` [Example I-167, 6-(3-amino-6-(3-((dimethylamino)methyl)-4-(tetrahydro-2H-pyran-4-yl)phenyl)-5-fluoropyrazin-2-yl)-8-fluoro-4-methylisoquinolin-1(2H)-one], the IC50 was in the range of 0.1 to 10 nM.

Turning to `Nc1nc(F)c(-c2ccc(N3CCN(CC4CC4)CC3)cc2)nc1-c1ccc2c(=O)[nH]cc(F)c2c1` [Example I-84, 6-(3-amino-6-(4-(4-(cyclopropylmethyl)piperazin-1-yl)phenyl)-5-fluoropyrazin-2-yl)-4-fluoroisoquinolin-1(2H)-one], the IC50 fell in the range of 0.1 to 10 nM.

For the molecule `CN(C)Cc1cc(-c2nc(-c3ccc4c(c3)C3(CC3)CNC4=O)c(N)nc2F)ccc1N1CCOCC1` [Example I-105, 6′-(3-amino-6-(3-((dimethylamino)methyl)-4-morpholinophenyl)-5-fluoropyrazin-2-yl)-2′,3′-dihydro-1′H-spiro[cyclopropane-1,4′-isoquinolin]-1′-one], the IC50 fell in the range of 0.1 to 10 nM.

Take `COC1CN(Cc2cc(-c3nc(-c4cc(F)c5c(c4)CCNC5=O)c(N)nc3F)ccc2C2CCOCC2)C1` [Example I-191, 6-(3-amino-5-fluoro-6-(3-((3-methoxyazetidin-1-yl)methyl)-4-(tetrahydro-2H-pyran-4-yl)phenyl)pyrazin-2-yl)-8-fluoro-3,4-dihydroisoquinolin-1(2H)-one]: the IC50 was in the range of 0.1 to 10 nM.

As to `CN(C)[C@@H]1CCOc2ccc(-c3nc(-c4cc(F)c5c(c4)CCNC5=O)c(N)nc3F)cc21` [Example I-289, (R)-6-(3-amino-6-(4-(dimethylamino)chroman-6-yl)-5-fluoropyrazin-2-yl)-8-fluoro-3,4-dihydroisoquinolin-1(2H)-one], the IC50 was in the range of 11 to 100 nM.

In the case of `Nc1nc(F)c(-c2ccc(N3CCN(CC4CC4)CC3)cc2)nc1-c1cc2c(F)c[nH]c(=O)c2cc1F` [Example I-141, 6-(3-amino-6-(4-(4-(cyclopropylmethyl)piperazin-1-yl)phenyl)-5-fluoropyrazin-2-yl)-4,7-difluoroisoquinolin-1(2H)-one], the IC50 lay in the range of 0.1 to 10 nM.

On to `Cc1c[nH]c(=O)c2ccc(-c3nc(-c4ccc(C5CCOCC5)c(CN5CCCC5)c4)c(F)nc3N)cc12` [Example I-205, 6-(3-amino-5-fluoro-6-(3-(pyrrolidin-1-ylmethyl)-4-(tetrahydro-2H-pyran-4-yl)phenyl)pyrazin-2-yl)-4-methylisoquinolin-1(2H)-one], for which the IC50 lay in the range of 0.1 to 10 nM.

`C[C@@H]1CCCN1Cc1cc(-c2nc(-c3ccc4c(=O)[nH]cc(Cl)c4c3)c(N)nc2F)ccc1C1CCOCC1` [Example I-227, (R)-6-(3-amino-5-fluoro-6-(3-((2-methylpyrrolidin-1-yl)methyl)-4-(tetrahydro-2H-pyran-4-yl)phenyl)pyrazin-2-yl)-4-chloroisoquinolin-1(2H)-one]: the IC50 was in the range of 11 to 100 nM.

`COC1CN(Cc2cc(-c3nc(-c4ccc5c(c4)CCNC5=O)c(N)nc3F)ccc2C2CCOCC2)C1` [Example I-193, 6-(3-amino-5-fluoro-6-(3-((3-methoxyazetidin-1-yl)methyl)-4-(tetrahydro-2H-pyran-4-yl)phenyl)pyrazin-2-yl)-3,4-dihydroisoquinolin-1(2H)-one]: the IC50 was 0.1 to 10 nM.

On to `Cc1cc(-c2nc(-c3ccc4c(=O)[nH]cc(F)c4c3)c(N)nc2F)cc2c1CCN(C)C2` [Example I-296, 6-(3-amino-6-(2,5-dimethyl-1,2,3,4-tetrahydroisoquinolin-7-yl)-5-fluoropyrazin-2-yl)-4-fluoroisoquinolin-1(2H)-one], for which the IC50 fell in the range of 0.1 to 10 nM.

With `Nc1nc(F)c(-c2ccc(N3CCOCC3)c(CN3CCC3)c2)nc1-c1ccc2c(c1)CCNC2=O` [Example I-144, 6-(3-amino-6-(3-(azetidin-1-ylmethyl)-4-morpholinophenyl)-5-fluoropyrazin-2-yl)-3,4-dihydroisoquinolin-1(2H)-one], the IC50 lay within 0.1 to 10 nM.

In the case of `Nc1nc(F)c(-c2ccc(N3CCOCC3)c(CN3CCC3)c2F)nc1-c1cc(F)c2c(c1)CCNC2=O` [Example I-245, 6-(3-amino-6-(3-(azetidin-1-ylmethyl)-2-fluoro-4-morpholinophenyl)-5-fluoropyrazin-2-yl)-8-fluoro-3,4-dihydroisoquinolin-1(2H)-one], the IC50 was in the range of 11 to 100 nM.

Regarding `Cc1[nH]c(=O)c2ccc(-c3nc(-c4ccc(N5CCOCC5)c(CN(C)C)c4)c(F)nc3N)cc2c1Cl` [Example I-124, 6-(3-amino-6-(3-((dimethylamino)methyl)-4-morpholinophenyl)-5-fluoropyrazin-2-yl)-4-chloro-3-methylisoquinolin-1(2H)-one], the IC50 fell in the range of 0.1 to 10 nM.

In the case of `Nc1nc(F)c(-c2ccc(N3CCOCC3)c(CN3CCCCC3)c2)nc1-c1cc2c(cc1F)C(=O)NCC2` [Example I-186, 6-(3-amino-5-fluoro-6-(4-morpholino-3-(piperidin-1-ylmethyl)phenyl)pyrazin-2-yl)-7-fluoro-3,4-dihydroisoquinolin-1(2H)-one], the IC50 lay within 11 to 100 nM.

For `Cc1cc(-c2nc(-c3cc(F)c4c(c3)CCNC4=O)c(N)nc2F)ccc1C1CCOCC1` [Example I-221, 6-(3-amino-5-fluoro-6-(3-methyl-4-(tetrahydro-2H-pyran-4-yl)phenyl)pyrazin-2-yl)-8-fluoro-3,4-dihydroisoquinolin-1(2H)-one], the IC50 is 0.1 to 10 nM.

For the molecule `CN(C)Cc1cc(-c2nc(-c3ccc4c(c3)CCNC4=O)c(N)nc2F)ccc1F` [Example I-272, 6-(3-amino-6-(3-((dimethylamino)methyl)-4-fluorophenyl)-5-fluoropyrazin-2-yl)-3,4-dihydroisoquinolin-1(2H)-one], the IC50 lay in the range of 11 to 100 nM.

Regarding `Nc1nc(F)c(-c2ccc([C@]34C[C@H]3CN(C3CCC3)C4)cc2)nc1-c1ccc2c(=O)[nH]cc(F)c2c1` [Example I-99, 6-(3-amino-6-(4-((1S,5R)-3-cyclobutyl-3-azabicyclo[3.1.0]hexan-1-yl)phenyl)-5-fluoropyrazin-2-yl)-4-fluoroisoquinolin-1(2H)-one], the IC50 was in the range of 0.1 to 10 nM.

`CC(C)N1CCN(c2ccc(-c3nc(-c4cc(F)c5c(=O)[nH]cc(Cl)c5c4)c(N)nc3F)cc2)CC1` [Example I-90, 6-(3-amino-5-fluoro-6-(4-(4-isopropylpiperazin-1-yl)phenyl)pyrazin-2-yl)-4-chloro-8-fluoroisoquinolin-1(2H)-one]: the concentration for half-maximal inhibition (IC50) was in the range of 0.1 to 10 nM.

As for `CN(C)Cc1cc(-c2nc(-c3ccc4c(=O)[nH]cc(F)c4c3)c(N)nc2F)ccc1O` [Example I-305, 6-(3-amino-6-(3-((dimethylamino)methyl)-4-hydroxyphenyl)-5-fluoropyrazin-2-yl)-4-fluoroisoquinolin-1(2H)-one], the IC50 lay within 0.1 to 10 nM.
